Reference: paper PMC12561106, “STOP Strategy to Inhibit P. falciparum and S. aureus Growth: Molecular Mechanism Studies on Purposely Designed Hybrids” (Antibiotics, 2025)
In brackets after ≈: the same amount, converted by molar mass. Like-named read-outs stand apart in the source and are kept apart here.

What was measured:
Format in all cases: cell-based
[1] = tested on: P. falciparum CQ-sensitive (CQ-S) D10 strain; experiment: antiplasmodial drug susceptibility assay (pLDH), CQ-sensitive strain; settings: Plasmodium falciparum; P. falciparum D10, 72 h, pLDH; mean value with standard deviation; read-out: IC50 D10 (CQ-S)
Experimental: (§1) P. falciparum cultures were carried out according to Trager and Jensen with slight modifications. The CQ-sensitive strain D10 and the CQ-resistant strain W2 were maintained at 5% hematocrit (human A-positive erythrocytes) in RPMI 1640 medium (EuroClone S.p.A, Milan, Italy) with the addition of 1% AlbuMax (Invitrogen, San Diego, California, USA), 0.01% hypoxanthine, 20 mM Hepes, and 2 mM glutamine at 37 °C in a standard gas mixture (1% O2, 5% CO2, and 94% N2). […] Drugs were placed in 96-well flat-bottomed microplates, and serial dilutions were made. Asynchronous cultures with parasitaemia of 1–1.5% and 1% final hematocrit were aliquoted into the plates and incubated for 72 h at 37 °C. Parasite growth was determined spectrophotometrically (OD650nm) by measuring the activity of the parasite lactate dehydrogenase (pLDH), as described in a modified version of Makler’s method in control- and drug-treated cultures. The antiplasmodial activity is expressed as 50% inhibitory concentrations (IC50); each IC50 value is the mean ± standard deviation of at least three separate experiments performed in duplicate.

[2] = tested on: P. falciparum CQ-resistant (CQ-R) W2 strain; experiment: antiplasmodial drug susceptibility assay (pLDH), CQ-resistant strain; settings: Plasmodium falciparum; P. falciparum W2, 72 h, pLDH; mean value with standard deviation; read-out: IC50 W2 (CQ-R)
Experimental: as §1

S. aureus ATCC 25923 = experiment: broth microdilution antimicrobial assay (MIC, IC50); settings: Staphylococcus aureus, ATCC25923; for MIC: broth microdilution, 24 h, range 100–0.19 µM
Text: (§2) Reference bacterial strains of Staphylococcus aureus (ATCC 25923) and Escherichia coli (ATCC 25922) were used in this study as Gram-positive and negative models, respectively. These reference strains were purchased from the American Type Culture Collection (ATCC, Manassas, VA, USA). Clinical isolates, identified by MALDI-TOF MS (Bruker Daltonik, GmbH, Bremen, Germany), were profiled for their antibiotic susceptibility by using the Vitek2 semiautomated system (bioMérieux, Craponne, France) and according to EUCAST (Version 12, 2022, http://www.eucast.org (accessed on 1 January 2022)). The bacterial cultures were routinely grown on 5% blood agar plates (Biolife Italiana S.r.l., Milan, Italy) and were freshly used in the antibacterial assays.
(§3) The minimum inhibitory concentrations (MICs) were determined using the microbroth dilution method in microtiter plates according to the Clinical and Laboratory Standards Institute (CLSI) guidelines. In short, microbial inocula were prepared at 0.5 McFarland in PBS and, subsequently, bacterial suspensions were diluted 1:200 in Mueller–Hinton broth (Sigma-Aldrich, St. Louis, MO, USA), while fungal inoculum was diluted 1:20 in RPMI-1640 medium (Gibco®, ThermoFisher Scientific Inc., Waltham, MA, USA), containing glucose 2%, 0.3% levo-glutamine buffered to pH 7.0 with 0.165 M 3-(N-morpholino)propanesulfonic acid (MOPS). A total of 100 µL of these microbial suspensions was introduced into a 96-well microplate and incubated with 100 µL of the compounds, two-fold serially diluted in the range of 100–0.19 µM. Positive controls (microbial suspensions in regular media), negative controls (only compounds), solvent controls (microbial suspensions incubated with DMSO dilutions), and the reference drug controls were included in the tests. The plate was incubated at 37 °C for 24 h, and subsequently the optical density at 630 nm (OD630nm) was spectrophotometrically measured. Experiments were performed in triplicate with three biological replicates. In addition to MIC, IC50 values were measured for the active compounds. The values, corresponding to the concentration of the compound giving rise to an inhibition of growth of 50%, were obtained by interpolation on dose–response curves generated by plotting the percentages of growth inhibition, relative to the positive control (set to 100% of growth), as a function of the tested concentrations (on a logarithm scale). Statistical analysis was carried out by using GraphPad Prism version 9.4.1 for Windows (GraphPad Software, San Diego, CA, USA, www.graphpad.com).

E. coli ATCC 25923 = experiment: broth microdilution antimicrobial assay (MIC); settings: Escherichia coli, ATCC25923, 24 h, range 100–0.19 µM
C. albicans ATCC 10231 = experiment: broth microdilution antifungal assay (MIC); settings: Candida albicans, ATCC10231, 24 h, range 100–0.19 µM
Experimental: The reference strain of Candida albicans (ATCC 10231) was used in the present study and maintained on Sabouraud Dextrose Agar (Biolife Italiana S.r.l., Milan, Italy) before the antifungal assays.
as §3

[3] = tested on: clinical isolates of methicillin-resistant S. aureus (MRSA); experiment: broth microdilution IC50 on MRSA clinical isolates; settings: Staphylococcus aureus; five MRSA clinical isolates, range of IC50; read-out: IC50 ranges, MRSA (n = 5)
Text: as §2, §3

[4] = cell viability and proliferation assay (CCK-8/WST8); settings: human, WS1 cells (human-derived fibroblasts, ATCC CRL-1502), mean value with standard deviation
Experimental: WS1 cells (ATCC CRL-1502) were selected as a model system to investigate the effect of PTZ-quinoline hybrid compounds on human-derived fibroblasts. Briefly, cells were cultured in DMEM-High glucose supplemented with 10% fetal bovine serum (FBS) (Carlo Erba Reagents, Milan, Italy), 100 U/mL penicillin, and 100 µg/mL streptomycin at 37 °C with 5% CO2. For experiments, cells were seeded into 96-well plates at 0.7 × 10^4 cells/well, and incubated at 37 °C for 24 h. […] Cell viability was assessed by a WST8-based assay according to the manufacturer’s instructions (CCK-8, Cell Counting Kit-8, Dojindo Molecular Technologies, Rockville, MD, USA). After 48 h of incubation, culture medium was removed from each well, the monolayer was washed with PBS, and 100 µL of fresh medium containing 10 µL of CCK-8 solution was added. Following a 2 h incubation at 37 °C, the OD450nm was read, and data were expressed as the percentage of cell viability relative to the untreated controls. The CC50 was obtained on the corresponding dose–response curves generated as previously reported for IC50 values. Experiments were carried out in triplicate in three biological replicates.

[5] = S. aureus ATCC 25923, 24 h, OD630, mean value with standard deviation, read-out: IC50 ATCC 25923
[6] = reference strain, range of IC50, read-out: IC50 ranges, ATCC 25923

SMILES | IC50 [1] [µM] | IC50 [2] [µM] | IC50 (S. aureus ATCC 25923; [5]) [µM] | MIC (S. aureus ATCC 25923) [µM] | IC50 (S. aureus ATCC 25923; [6]) [µM] | MIC (E. coli ATCC 25923) [µM] | MIC (C. albicans ATCC 10231) [µM] | IC50 [3] [µM] | CC50 at 48 h [4] [µM]
Clc1ccc2c(c1)N(Cc1cn(CCNc3ccnc4cc(Cl)ccc34)nn1)c1ccccc1S2 [Compound 4b, 7-chloro-N-(2-(4-((2-chloro-10H-phenothiazin-10-yl)methyl)-1H-1,2,3-triazol-1-yl)ethyl)quinolin-4-amine] | 0.156 ± 0.018 | 0.154 ± 0.002 | 4.86 ± 0.89 | 6.25 to 12.5 (≈ 3.25 to 6.49 µg/mL) | 3.97 to 5.75 | > 100 | > 100 | 4.42 to 6.48 | 12.7 ± 3.51
Clc1ccc2c(N3CCN(CCCn4cc(CN5c6ccccc6Sc6ccccc65)nn4)CC3)ccnc2c1 [Compound 8, 10-((1-(3-(4-(7-chloroquinolin-4-yl)piperazin-1-yl)propyl)-1H-1,2,3-triazol-4-yl)methyl)-10H-phenothiazine] | 12.6 ± 0.241 | 2.17 ± 0.243 | – | > 100 | – | > 100 | > 100 | – | > 100

Continued, in another order:

IC50 [1] [µM] | IC50 [2] [µM] | IC50 (S. aureus ATCC 25923; [5]) [µM] | MIC (S. aureus ATCC 25923) [µM] | IC50 (S. aureus ATCC 25923; [6]) [µM] | MIC (E. coli ATCC 25923) [µM] | MIC (C. albicans ATCC 10231) [µM] | IC50 [3] [µM] | SMILES | CC50 at 48 h [4] [µM]
0.142 ± 0.02 | 0.2 ± 0.03 | 7.49 ± 0.15 | 12.5 (≈ 6.06 µg/mL) | 7.34 to 7.64 | > 100 | > 100 | 7.75 to 8.98 | Clc1ccc2c(NCCn3cc(CN4c5ccccc5Sc5ccccc54)nn3)ccnc2c1 [Compound 4a, N-(2-(4-((10H-phenothiazin-10-yl)methyl)-1H-1,2,3-triazol-1-yl)ethyl)-7-chloroquinolin-4-amine] | 17.9 ± 3.23
0.292 ± 0.078 | 0.174 ± 0.025 | 6.73 ± 1.32 | 12.5 (≈ 6.24 µg/mL) | 5.41 to 8.05 | > 100 | > 100 | 6.4 to 9.63 | Clc1ccc2c(NCCCn3cc(CN4c5ccccc5Sc5ccccc54)nn3)ccnc2c1 [Compound 5a, N-(3-(4-((10H-phenothiazin-10-yl)methyl)-1H-1,2,3-triazol-1-yl)propyl)-7-chloroquinolin-4-amine] | 11.8 ± 0.14
0.146 ± 0.006 | 0.135 ± 0.017 | 5.03 ± 1.72 | 6.25 to 12.5 (≈ 3.33 to 6.67 µg/mL) | 3.31 to 6.75 | > 100 | > 100 | 6.18 to 10.3 | Clc1ccc2c(c1)N(Cc1cn(CCCNc3ccnc4cc(Cl)ccc34)nn1)c1ccccc1S2 [Compound 5b, 7-chloro-N-(3-(4-((2-chloro-10H-phenothiazin-10-yl)methyl)-1H-1,2,3-triazol-1-yl)propyl)quinolin-4-amine] | 22.1 ± 0.66
